{"source": "patent US12324430B2", "about": "“Topical antiseptic system” (INFECTION CONTAINMENT COMPANY, LLC, priority 2015, dated 2025)", "origin": "cited, not measured here"}
{"substance": "zinc glycerate", "values": [{"measurement": "water solubility (in words)", "result": "moderately water soluble"}]}
{"substance": "zinc picolinate", "values": [{"measurement": "water solubility (in words)", "result": "moderately water soluble"}]}
